# Source: ChEMBL document CHEMBL1139992, “Synthesis and biological activity of enantiomeric pairs of 5-vinylthiolactomycin congeners” (Bioorg Med Chem Lett, 2007)
# Test system: Haemophilus influenzae
# Test: Antimicrobial activity against Haemophilus influenzae IID983
# Format: functional
row,Compound,MIC
1,CCC/C=C/[C@]1(C)SC(=O)C=C1O,> 128 µg/mL
2,C=C[C@]1(C)SC(=O)C(C)=C1O,> 128 µg/mL
3,C=C[C@]1(C)SC(=O)C=C1O,> 128 µg/mL
4,C/C=C/[C@@]1(C)SC(=O)C(C)=C1O,> 128 µg/mL
5,C/C=C/[C@@]1(C)SC(=O)C=C1O,> 128 µg/mL
6,CC/C=C/[C@@]1(C)SC(=O)C(C)=C1O,> 128 µg/mL
7,CC/C=C/[C@]1(C)SC(=O)C(C)=C1O,> 128 µg/mL
8,CC/C=C/[C@]1(C)SC(=O)C=C1O,> 128 µg/mL
9,CCC/C=C/[C@]1(C)SC(=O)C(C)=C1O,> 128 µg/mL
10,CCC/C=C/[C@@]1(C)SC(=O)C=C1O,> 128 µg/mL
11,CCCC/C=C/[C@]1(C)SC(=O)C(C)=C1O,> 128 µg/mL
12,CCCC/C=C/[C@@]1(C)SC(=O)C=C1O,> 128 µg/mL
13,CCCCCC/C=C/[C@@]1(C)SC(=O)C(C)=C1O,> 128 µg/mL
14,CCCCCC/C=C/[C@@]1(C)SC(=O)C=C1O,> 128 µg/mL
15,C=C/C(C)=C/[C@@]1(C)SC(=O)C=C1O,32 µg/mL
16,C=C[C@@]1(C)SC(=O)C(C)=C1O,> 128 µg/mL
17,CCCC/C=C/[C@@]1(C)SC(=O)C(C)=C1O,> 128 µg/mL
18,CCCC/C=C/[C@]1(C)SC(=O)C=C1O,> 128 µg/mL
19,CC/C=C/[C@@]1(C)SC(=O)C=C1O,> 128 µg/mL
20,C/C=C/[C@]1(C)SC(=O)C(C)=C1O,> 128 µg/mL
21,C/C=C/[C@]1(C)SC(=O)C=C1O,> 128 µg/mL
22,C=C[C@@]1(C)SC(=O)C=C1O,> 128 µg/mL
23,CCC/C=C/[C@@]1(C)SC(=O)C(C)=C1O,> 128 µg/mL
24,O=C(O)c1cn(C2CC2)c2cc(N3CCNCC3)c(F)cc2c1=O [CIPROFLOXACIN],0.008 µg/mL
25,C=C/C(C)=C/[C@@]1(C)SC(=O)C(C)=C1O [THIOLACTOMYCIN],2 µg/mL

# Test system: not listed separately
# Test: Inhibition of type1 FAS in HepG2 cells
# Format: cell-based, Homo sapiens
row,Compound,IC50
1,C=C/C(C)=C/[C@]1(C)SC(=O)C(C)=C1O,43.7 µg/mL
2,CCC/C=C/[C@]1(C)SC(=O)C=C1O,8.8 µg/mL
3,C=C[C@]1(C)SC(=O)C(C)=C1O,> 80 µg/mL
4,C=C[C@]1(C)SC(=O)C=C1O,70.1 µg/mL
5,C/C=C/[C@@]1(C)SC(=O)C(C)=C1O,72.3 µg/mL
6,C/C=C/[C@@]1(C)SC(=O)C=C1O,72.1 µg/mL
7,CC/C=C/[C@@]1(C)SC(=O)C(C)=C1O,57.5 µg/mL
8,CC/C=C/[C@]1(C)SC(=O)C(C)=C1O,47 µg/mL
9,CC/C=C/[C@]1(C)SC(=O)C=C1O,18.9 µg/mL
10,CCC/C=C/[C@]1(C)SC(=O)C(C)=C1O,20 µg/mL
11,CCC/C=C/[C@@]1(C)SC(=O)C=C1O,41.6 µg/mL
12,CCCC/C=C/[C@]1(C)SC(=O)C(C)=C1O,19.9 µg/mL
13,CCCC/C=C/[C@@]1(C)SC(=O)C=C1O,18.6 µg/mL
14,CCCCCC/C=C/[C@@]1(C)SC(=O)C(C)=C1O,57 µg/mL
15,CCCCCC/C=C/[C@@]1(C)SC(=O)C=C1O,20.1 µg/mL
16,C=C1C(=O)O[C@@H](CCCCCCCC)[C@@H]1C(=O)O,7.4 µg/mL
17,C=C/C(C)=C/[C@@]1(C)SC(=O)C=C1O,> 80 µg/mL
18,C=C/C(C)=C/[C@]1(C)SC(=O)C=C1O,19 µg/mL
19,C=C[C@@]1(C)SC(=O)C(C)=C1O,> 80 µg/mL
20,CCCC/C=C/[C@@]1(C)SC(=O)C(C)=C1O,33.7 µg/mL
21,CCCC/C=C/[C@]1(C)SC(=O)C=C1O,21 µg/mL
22,CC/C=C/[C@@]1(C)SC(=O)C=C1O,40.3 µg/mL
23,C/C=C/[C@]1(C)SC(=O)C(C)=C1O,37.1 µg/mL
24,C/C=C/[C@]1(C)SC(=O)C=C1O,> 80 µg/mL
25,C=C[C@@]1(C)SC(=O)C=C1O,> 80 µg/mL
26,CCC/C=C/[C@@]1(C)SC(=O)C(C)=C1O,41.5 µg/mL
27,CCCCCC/C=C/[C@]1(C)SC(=O)C(C)=C1O (stereo in doubt; form 1),34.8 µg/mL
28,C=C/C(C)=C/[C@@]1(C)SC(=O)C(C)=C1O [THIOLACTOMYCIN],> 80 µg/mL

# Test system: Moraxella catarrhalis
# Test: Antimicrobial activity against Moraxella catarrhalis ATCC 25238
# Format: functional
row,Compound,MIC
1,C=C/C(C)=C/[C@]1(C)SC(=O)C(C)=C1O,> 128 µg/mL
2,CCC/C=C/[C@]1(C)SC(=O)C=C1O,> 128 µg/mL
3,C=C[C@]1(C)SC(=O)C(C)=C1O,> 128 µg/mL
4,C=C[C@]1(C)SC(=O)C=C1O,> 128 µg/mL
5,C/C=C/[C@@]1(C)SC(=O)C(C)=C1O,> 128 µg/mL
6,C/C=C/[C@@]1(C)SC(=O)C=C1O,> 128 µg/mL
7,CC/C=C/[C@@]1(C)SC(=O)C(C)=C1O,> 128 µg/mL
8,CC/C=C/[C@]1(C)SC(=O)C(C)=C1O,> 128 µg/mL
9,CC/C=C/[C@]1(C)SC(=O)C=C1O,> 128 µg/mL
10,CCC/C=C/[C@]1(C)SC(=O)C(C)=C1O,> 128 µg/mL
11,CCC/C=C/[C@@]1(C)SC(=O)C=C1O,> 128 µg/mL
12,CCCC/C=C/[C@]1(C)SC(=O)C(C)=C1O,> 128 µg/mL
13,CCCC/C=C/[C@@]1(C)SC(=O)C=C1O,> 128 µg/mL
14,CCCCCC/C=C/[C@@]1(C)SC(=O)C(C)=C1O,> 128 µg/mL
15,CCCCCC/C=C/[C@@]1(C)SC(=O)C=C1O,> 128 µg/mL
16,C=C/C(C)=C/[C@@]1(C)SC(=O)C=C1O,16 µg/mL
17,C=C/C(C)=C/[C@]1(C)SC(=O)C=C1O,> 128 µg/mL
18,C=C[C@@]1(C)SC(=O)C(C)=C1O,> 128 µg/mL
19,CCCC/C=C/[C@@]1(C)SC(=O)C(C)=C1O,> 128 µg/mL
20,CCCC/C=C/[C@]1(C)SC(=O)C=C1O,> 128 µg/mL
21,CC/C=C/[C@@]1(C)SC(=O)C=C1O,> 128 µg/mL
22,C/C=C/[C@]1(C)SC(=O)C(C)=C1O,> 128 µg/mL
23,C/C=C/[C@]1(C)SC(=O)C=C1O,> 128 µg/mL
24,C=C[C@@]1(C)SC(=O)C=C1O,> 128 µg/mL
25,CCC/C=C/[C@@]1(C)SC(=O)C(C)=C1O,> 128 µg/mL
26,O=C(O)c1cn(C2CC2)c2cc(N3CCNCC3)c(F)cc2c1=O [CIPROFLOXACIN],0.031 µg/mL
27,C=C/C(C)=C/[C@@]1(C)SC(=O)C(C)=C1O [THIOLACTOMYCIN],0.25 µg/mL

# Test system: Bacteroides fragilis
# Test: Antimicrobial activity against Bacteroides fragilis GAI5560
# Format: functional
row,Compound,MIC
1,CCC/C=C/[C@]1(C)SC(=O)C=C1O,> 128 µg/mL
2,C=C[C@]1(C)SC(=O)C(C)=C1O,> 128 µg/mL
3,C=C[C@]1(C)SC(=O)C=C1O,> 128 µg/mL
4,C/C=C/[C@@]1(C)SC(=O)C(C)=C1O,> 128 µg/mL
5,C/C=C/[C@@]1(C)SC(=O)C=C1O,> 128 µg/mL
6,CC/C=C/[C@@]1(C)SC(=O)C(C)=C1O,> 128 µg/mL
7,CC/C=C/[C@]1(C)SC(=O)C(C)=C1O,> 128 µg/mL
8,CC/C=C/[C@]1(C)SC(=O)C=C1O,> 128 µg/mL
9,CCC/C=C/[C@]1(C)SC(=O)C(C)=C1O,> 128 µg/mL
10,CCC/C=C/[C@@]1(C)SC(=O)C=C1O,> 128 µg/mL
11,CCCC/C=C/[C@]1(C)SC(=O)C(C)=C1O,> 128 µg/mL
12,CCCC/C=C/[C@@]1(C)SC(=O)C=C1O,> 128 µg/mL
13,CCCCCC/C=C/[C@@]1(C)SC(=O)C(C)=C1O,> 128 µg/mL
14,CCCCCC/C=C/[C@@]1(C)SC(=O)C=C1O,> 128 µg/mL
15,C=C/C(C)=C/[C@@]1(C)SC(=O)C=C1O,128 µg/mL
16,C=C[C@@]1(C)SC(=O)C(C)=C1O,> 128 µg/mL
17,CCCC/C=C/[C@@]1(C)SC(=O)C(C)=C1O,> 128 µg/mL
18,CCCC/C=C/[C@]1(C)SC(=O)C=C1O,> 128 µg/mL
19,CC/C=C/[C@@]1(C)SC(=O)C=C1O,> 128 µg/mL
20,C/C=C/[C@]1(C)SC(=O)C(C)=C1O,> 128 µg/mL
21,C/C=C/[C@]1(C)SC(=O)C=C1O,> 128 µg/mL
22,C=C[C@@]1(C)SC(=O)C=C1O,> 128 µg/mL
23,CCC/C=C/[C@@]1(C)SC(=O)C(C)=C1O,> 128 µg/mL
24,O=C(O)c1cn(C2CC2)c2cc(N3CCNCC3)c(F)cc2c1=O [CIPROFLOXACIN],4 µg/mL
25,C=C/C(C)=C/[C@@]1(C)SC(=O)C(C)=C1O [THIOLACTOMYCIN],1 µg/mL

# Test system: Staphylococcus aureus
# Test: Antimicrobial activity against Staphylococcus aureus
# Format: functional
row,Compound,MIC
1,C=C/C(C)=C/[C@]1(C)SC(=O)C(C)=C1O,> 128 µg/mL
2,CCC/C=C/[C@]1(C)SC(=O)C=C1O,> 128 µg/mL
3,C=C[C@]1(C)SC(=O)C(C)=C1O,> 128 µg/mL
4,C=C[C@]1(C)SC(=O)C=C1O,> 128 µg/mL
5,C/C=C/[C@@]1(C)SC(=O)C(C)=C1O,> 128 µg/mL
6,C/C=C/[C@@]1(C)SC(=O)C=C1O,> 128 µg/mL
7,CC/C=C/[C@@]1(C)SC(=O)C(C)=C1O,> 128 µg/mL
8,CC/C=C/[C@]1(C)SC(=O)C(C)=C1O,> 128 µg/mL
9,CC/C=C/[C@]1(C)SC(=O)C=C1O,> 128 µg/mL
10,CCC/C=C/[C@]1(C)SC(=O)C(C)=C1O,> 128 µg/mL
11,CCC/C=C/[C@@]1(C)SC(=O)C=C1O,> 128 µg/mL
12,CCCC/C=C/[C@]1(C)SC(=O)C(C)=C1O,> 128 µg/mL
13,CCCC/C=C/[C@@]1(C)SC(=O)C=C1O,> 128 µg/mL
14,CCCCCC/C=C/[C@@]1(C)SC(=O)C(C)=C1O,> 128 µg/mL
15,CCCCCC/C=C/[C@@]1(C)SC(=O)C=C1O,> 128 µg/mL
16,C=C/C(C)=C/[C@@]1(C)SC(=O)C=C1O,> 128 µg/mL
17,C=C/C(C)=C/[C@]1(C)SC(=O)C=C1O,> 128 µg/mL
18,C=C[C@@]1(C)SC(=O)C(C)=C1O,> 128 µg/mL
19,CCCC/C=C/[C@@]1(C)SC(=O)C(C)=C1O,> 128 µg/mL
20,CCCC/C=C/[C@]1(C)SC(=O)C=C1O,> 128 µg/mL
21,CC/C=C/[C@@]1(C)SC(=O)C=C1O,> 128 µg/mL
22,C/C=C/[C@]1(C)SC(=O)C(C)=C1O,> 128 µg/mL
23,C/C=C/[C@]1(C)SC(=O)C=C1O,> 128 µg/mL
24,C=C[C@@]1(C)SC(=O)C=C1O,> 128 µg/mL
25,CCC/C=C/[C@@]1(C)SC(=O)C(C)=C1O,> 128 µg/mL
26,O=C(O)c1cn(C2CC2)c2cc(N3CCNCC3)c(F)cc2c1=O [CIPROFLOXACIN],0.063 µg/mL
27,C=C/C(C)=C/[C@@]1(C)SC(=O)C(C)=C1O [THIOLACTOMYCIN],128 µg/mL
